Measured values from patent US11434242B2, “Dopamine-b-hydroxylase inhibitors” (BIAL-PORTELA & Cª, S.A., priority 2017, dated 2022).

Biological target: T1, Dopamine beta hydroxylase (Homo sapiens, UniProt P09172)
T1 construct: 125 μl of plasma; tissue Instituto Português do Sangue Transplantação; host or cells: human plasma from healthy donors
T1 sequence (P09172 40-617 limits assumed): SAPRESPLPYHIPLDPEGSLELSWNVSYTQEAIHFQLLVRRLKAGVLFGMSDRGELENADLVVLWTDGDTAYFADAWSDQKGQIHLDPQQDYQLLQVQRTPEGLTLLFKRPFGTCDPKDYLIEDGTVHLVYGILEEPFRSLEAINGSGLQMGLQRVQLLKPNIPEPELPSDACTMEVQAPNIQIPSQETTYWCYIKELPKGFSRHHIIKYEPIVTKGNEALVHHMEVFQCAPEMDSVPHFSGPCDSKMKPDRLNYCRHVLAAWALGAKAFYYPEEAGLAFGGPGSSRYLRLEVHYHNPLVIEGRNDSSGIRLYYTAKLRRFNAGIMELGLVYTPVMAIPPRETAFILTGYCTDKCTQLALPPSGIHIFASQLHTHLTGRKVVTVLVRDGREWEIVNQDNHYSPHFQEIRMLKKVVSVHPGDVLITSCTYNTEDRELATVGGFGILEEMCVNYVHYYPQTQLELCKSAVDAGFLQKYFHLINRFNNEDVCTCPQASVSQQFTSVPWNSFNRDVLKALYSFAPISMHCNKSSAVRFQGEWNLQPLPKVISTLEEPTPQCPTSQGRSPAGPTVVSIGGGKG
Assay: Dopamine beta hydroxylase activity in human plasma
Format: biochemical
Settings: for Plasma (0.01 μM), activity in % of control: inhibitor 0.01 μM; for Plasma (0.1 μM), activity in % of control: inhibitor 0.1 μM; for Plasma (1 μM), activity in % of control: inhibitor 1 μM
Procedure, shortened: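 Healthy-donor human plasma pre-incubated 10 min at 37° C with compound at final 10, 100 or 1000 nM in pH 5.0 acetate buffer with ascorbate, fumarate, pargyline, N-ethylmaleimide, catalase and copper sulfate. Tyramine substrate then added for 45 min; octopamine formed was isolated by SCX cartridge, periodate-converted and read at 330 nm; activity given as % control.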

CN(C(=O)Cc1c2n(c(=S)n1C)C[C@H](c1c(F)ccc(Cl)c1F)C2)[C@@H]1CCOC1 [Example 399, 2-((S)-6-(3-chloro-2,6-difluorophenyl)-2-methyl-3-thioxo-2,5,6,7-tetrahydro-3H-pyrrolo[1,2-c]imidazol-1-yl)-N-methyl-N—((R)-tetrahydrofuran-3-yl)acetamide]
Plasma (0.01 μM), activity in % of control: 40.6 % of control | Plasma (0.1 μM), activity in % of control: 4.0 % of control

Cl.Cn1c(CCNCc2ccccn2)c2n(c1=S)C[C@@]1(c3cc(Cl)ccc3F)C[C@@H]21 [Example 343, (5aS,6aR)-5a-(5-chloro-2-fluorophenyl)-2-methyl-1-(2-((pyridin-2-ylmethyl)amino)ethyl)-5,5a,6,6a-tetrahydrocyclopropa[3,4]pyrrolo[1,2-c]imidazole-3(2H)-thione Hydrochloride]
Plasma (0.01 μM), activity in % of control: 94.9 % of control | Plasma (0.1 μM), activity in % of control: 59.5 % of control

Cl.Cn1c(CCN2CCOCC2)c2n(c1=S)C[C@@H](c1c(F)c(F)cc(F)c1F)C2 [Example 257, (R)-2-methyl-1-(2-morpholinoethyl)-6-(2,3,5,6-tetrafluorophenyl)-2,5,6,7-tetrahydro-3H-pyrrolo[1,2-c]imidazole-3-thione Hydrochloride]
Plasma (0.01 μM), activity in % of control: 105.9 % of control | Plasma (0.1 μM), activity in % of control: 92.4 % of control

CN(C(=O)Cc1c2n(c(=S)n1C)C[C@@]1(c3c(F)ccc(Cl)c3F)C[C@@H]21)[C@@H]1CCOC1 [Example 467, 2-((5aS,6aR)-5a-(3-chloro-2,6-difluorophenyl)-2-methyl-3-thioxo-2,3,5,5a,6,6a-hexahydrocyclopropa[3,4]pyrrolo[1,2-c]imidazol-1-yl)-N-methyl-N—((R)-tetrahydrofuran-3-yl)acetamide]
Plasma (0.01 μM), activity in % of control: 27.9 % of control | Plasma (0.1 μM), activity in % of control: 4.0 % of control

O=C(Cc1[nH]c(=S)n2c1[C@@H]1C[C@]1(c1c(F)ccc(Cl)c1F)C2)NCC(F)(F)F [Example 150, 2-((5aS,6aR)-5a-(3-chloro-2,6-difluorophenyl)-3-thioxo-2,3,5,5a,6,6a-hexahydrocyclopropa[3,4]pyrrolo[1,2-c]imidazol-1-yl)-N-(2,2,2-trifluoroethyl)acetamide]
Plasma (0.01 μM), activity in % of control: 64.8 % of control | Plasma (0.1 μM), activity in % of control: 17.1 % of control

CCOC(=O)CNC(=O)Cc1[nH]c(=S)n2c1C[C@H](c1c(F)c(F)cc(F)c1F)C2 [Example 25, Ethyl (R)-(2-(6-(2,3,5,6-tetrafluorophenyl)-3-thioxo-2,5,6,7-tetrahydro-3H-pyrrolo[1,2-c]imidazol-1-yl)acetyl)glycinate]
Plasma (0.1 μM), activity in % of control: 71.3 % of control | Plasma (1 μM), activity in % of control: 17.6 % of control

NC(=O)Cc1[nH]c(=S)n2c1C[C@@H](c1c(F)ccc(Cl)c1F)C2 [Example 108, (S)-2-(6-(3-chloro-2,6-difluorophenyl)-3-thioxo-2,5,6,7-tetrahydro-3H-pyrrolo[1,2-c]imidazol-1-yl)acetamide]
Plasma (0.1 μM), activity in % of control: 46.9 % of control | Plasma (1 μM), activity in % of control: 5.3 % of control

O=C(Cc1[nH]c(=S)n2c1C[C@H](c1c(F)c(F)cc(F)c1F)C2)NC1CCCC1 [Example 32]
Plasma (0.1 μM), activity in % of control: 46.2 % of control | Plasma (1 μM), activity in % of control: 9.7 % of control

CN(C(=O)Cc1c2n(c(=S)n1C)C[C@H](c1c(F)ccc(Cl)c1F)C2)C1CCOCC1 [Example 373, (S)-2-(6-(3-chloro-2,6-difluorophenyl)-2-methyl-3-thioxo-2,5,6,7-tetrahydro-3H-pyrrolo[1,2-c]imidazol-1-yl)-N-methyl-N-(tetrahydro-2H-pyran-4-yl)acetamide]
Plasma (0.01 μM), activity in % of control: 66.1 % of control | Plasma (0.1 μM), activity in % of control: 12.8 % of control
